This is an account of results in ChEMBL document CHEMBL3286291, “Synthesis and biological evaluation of substituted 4,6-diarylpyrimidines and 3,5-diphenyl-4,5-dihydro-1H-pyrazoles as anti-tubercular agents” (Bioorg Med Chem Lett, 2014).

As a reminder, the CC50 is the concentration that lowers cell viability or growth by half. Read a high CC50 as better tolerance by the cells. In general, MIC refers to the lowest concentration found to suppress growth. High values mean a less susceptible organism, low ones a more susceptible organism.

Data set [1] in a line: Selectivity index, ratio of CC50 for human THP1 cells to MIC for Mycobacterium tuberculosis H37Rv. The class given is toxicity, cell-based. The note with it: THP-1 cells, read-out: Selectivity Index.
A short description of data set [2]: Cytotoxicity against human THP1 cells by MTT assay. The class given is cell-based. The note with it: THP-1 cells. (Tetrazolium assays rely on reduction of a dye to a coloured formazan, in cell work by metabolically active cells.)
Data set [3] concerns Mycobacterium tuberculosis. The data set can be described thus: Antitubercular activity against Mycobacterium tuberculosis H37Rv by microplate alamar blue assay. It is filed as functional. For orientation: Resazurin is reduced to fluorescent resorufin, in cell work by metabolically active cells.

With `COc1cc(C2CC(c3ccc(Cl)cc3)=NN2C(C)=O)cc(OC)c1OC` (stereo unspecified), in data set [1], the selectivity ratio came to 8. The same compound came in with a CC50 in data set [2] of 100 µM. The same compound came in with an MIC in data set [3] of 12.5 µM.

As to `COc1cc(C2CC(c3ccc(Br)cc3)=NN2C(C)=O)cc(OC)c1OC` (stereo unspecified), the selectivity ratio in data set [1] was found to be 8. In addition, in data set [2], the CC50 was 100 µM. Moreover, the MIC in data set [3] is 12.5 µM.

Consider `COc1ccc(C2=NN(C(C)=O)C(c3cc(OC)c(OC)c(OC)c3)C2)cc1` (stereo unspecified), for which the selectivity ratio in data set [1] is 4. For the same compound, in data set [2], the cytotoxic concentration (CC50) is 200 µM. This compound yielded an MIC in data set [3] of 50 µM.

`CC1=NN(C(=O)c2cc(-c3ccc(Cl)cc3)n[nH]2)C(=O)/C1=N/Nc1cccc(F)c1` had a minimum inhibitory concentration (MIC) in data set [3] of 0.35 µg/mL.

For the compound `CCSc1nc(Cl)c(C#N)c(-c2ccc(F)cc2F)n1`, the MIC in data set [3] turned out to be 0.78 µg/mL.

With `COc1ccc(-c2cc(-c3cc(OC)c(OC)c(OC)c3)nc(N)n2)cc1`, the selectivity ratio in data set [1] came to 4. In addition, the CC50 in data set [2] was determined as 100 µM. The same compound yielded a minimum inhibitory concentration (MIC) in data set [3] of 25 µM.

`COc1cc(-c2cc(-c3ccc(Br)cc3)nc(N)n2)cc(OC)c1OC` showed a CC50 in data set [2] of 100 µM. The compound also gave an MIC in data set [3] of 50 µM.

In the case of `COc1cc(-c2cc(-c3ccc(Cl)cc3)nc(N)n2)cc(OC)c1OC`, it took 50 µM to inhibit growth in data set [3] (MIC). In other words, the double-digit micromolar range.

Turning to `COc1cc(-c2cc(-c3ccc(F)cc3)nc(N)n2)cc(OC)c1OC`, in data set [3], it took 50 µM to inhibit growth (MIC).

On to `COc1cc(-c2cc(-c3cc(OC)c(OC)c(OC)c3)nc(N)n2)cc(OC)c1OC`, for which, in data set [3], the minimal inhibitory concentration (MIC) is > 100 µM.

`COc1cc(-c2cc(-c3ccc4c(c3)OCO4)nc(N)n2)cc(OC)c1OC` showed a CC50 in data set [2] of 200 µM. For the same compound, the MIC in data set [3] was > 100 µM.

`COc1ccc(-c2cc(-c3ccc4c(c3)OCO4)nc(N)n2)cc1`: the minimal inhibitory concentration (MIC) in data set [3] is > 100 µM.

Turning to `COc1ccc(-c2cc(-c3cc(OC)c(OC)c(OC)c3)nc(-c3cccnc3)n2)cc1`, in data set [2], half-maximal cytotoxicity (CC50) was put at 200 µM. The MIC in data set [3] turned out to be 100 µM.

As for `COc1ccc(-c2cc(-c3cc(OC)c(OC)c(OC)c3)nc(-c3ccccn3)n2)cc1`, half-maximal cytotoxicity in data set [2] (CC50) was put at 50 µM. Further, the MIC in data set [3] came to 25 µM.

Turning to `COc1ccc(-c2cc(-c3cc(OC)c(OC)c(OC)c3)nc(-c3ccncc3)n2)cc1`, in data set [3], the MIC was > 100 µM.

For `COc1cc(-c2cc(-c3cc(OC)c(OC)c(OC)c3)nc(-c3ccncc3)n2)cc(OC)c1OC`, in data set [3], the MIC is > 100 µM.

The compound `COc1cc(-c2cc(-c3ccc4c(c3)OCO4)nc(-c3ccncc3)n2)cc(OC)c1OC` displayed a cytotoxic concentration (CC50) in data set [2] of 400 µM. Besides, in data set [3], the MIC is > 100 µM.

In data set [2], `COc1cc(C2=NN(C(C)=O)C(c3cc(OC)c(OC)c(OC)c3)C2)cc(OC)c1OC` (stereo unspecified) showed a CC50 of 200 µM. The MIC in data set [3] was > 100 µM.

`COc1cc(C2CC(c3ccc4c(c3)OCO4)=NN2C(C)=O)cc(OC)c1OC` (stereo unspecified) returned a CC50 in data set [2] of 200 µM. The same compound showed an MIC in data set [3] of 100 µM.

As to `COc1ccc(C2CC(c3ccc4c(c3)OCO4)=NN2C(C)=O)cc1` (stereo unspecified), the cytotoxic concentration (CC50) in data set [2] was determined as 200 µM. The same compound had an MIC in data set [3] of 100 µM.
